Converted amounts (≈) assume the structure as drawn.
Experiments:
Staphylococcus aureus [1] = experiment: Antibacterial activity against methicillin-resistant Staphylococcus aureus assessed as reduction in bacterial growth; format: functional
[2] = Hemolytic activity in human RBC; format: toxicity, cell-based, Erythrocyte; conditions: human red blood cells (erythrocytes)
Staphylococcus aureus [3] = experiment: In vivo antibacterial activity against methicillin-resistant Staphylococcus aureus infected in murine assessed as log reduction in bacterial burden; format: functional; set-up: scale not given: the % may be the effect or the level left
Enterococcus faecium = experiment: Antibacterial activity against vancomycin-resistant Enterococcus faecium assessed as reduction in bacterial growth; format: functional
[4] = test system: Staphylococcus epidermidis; experiment: Antibacterial activity against methicillin-resistant Staphylococcus epidermidis assessed as reduction in bacterial growth; format: functional
Escherichia coli = experiment: Antibacterial activity against Escherichia coli assessed as reduction in bacterial growth; format: functional
Klebsiella pneumoniae = experiment: Antibacterial activity against Klebsiella pneumoniae assessed as reduction in bacterial growth; format: functional
Pseudomonas aeruginosa = experiment: Antibacterial activity against Pseudomonas aeruginosa assessed as reduction in bacterial growth; format: functional

CCCCCCCCCNC(=O)[C@H](CCCCN)NC(=O)c1ccc(C(=O)N[C@@H](CCCCN)C(=O)NCCCCCCCCC)cc1
MIC (Staphylococcus aureus [1]): 0.75 µg/mL (≈ 1.11 µM)
HC50 [2]: 180 µg/mL

NCCCC[C@H](N)CN(CC(=O)Nc1cc(NC(=O)CN(C[C@@H](N)CCCCN)C(=O)CC23CC4CC(CC(C4)C2)C3)cc(C(=O)NCCNC(=O)CC23CC4CC(CC(C4)C2)C3)c1)C(=O)CC12CC3CC(CC(C3)C1)C2
Activity (Staphylococcus aureus [3]): 99.998%
MIC (Enterococcus faecium): 2 µg/mL (≈ 1.88 µM)
MIC [4]: 2 µg/mL (≈ 1.88 µM)
MIC (Staphylococcus aureus [1]): 2 µg/mL (≈ 1.88 µM)
HC50 [2]: 250 µg/mL
MIC (Escherichia coli): 2 µg/mL (≈ 1.88 µM)
MIC (Klebsiella pneumoniae): 2 µg/mL (≈ 1.88 µM)
MIC (Pseudomonas aeruginosa): 2 µg/mL (≈ 1.88 µM)

Reference: ChEMBL document CHEMBL5214908, “Small Scorpion-like Peptidomimetics: Potential Broad-Spectrum Membrane Active Antimicrobials without Detectable Resistance” (J Med Chem, 2021)
